According to US9090600B2, “Fungicidal 4-substituted-3-{phenyl[(heterocyclylmethoxy)imino]methyl}-1,2,4-oxadizol-5(4H)-one derivatives” (BAYER INTELLECTUAL PROPERTY GMBH, priority 2011, dated 2015):
Marks after values point to notes of the source that are not given here.

Assays:
Plasmopara viticola = experiment: Plasmopara test (grapevines)/preventive; format: in vivo; settings: preventive spray, 10 ppm of active ingredient, evaluated 6 days after inoculation
Outline: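 Young grapevines sprayed preventively with compound formulated in acetone/dimethylacetamide with emulsifier, diluted in water, then inoculated with P. viticola spores after drying. Held 1 day at ~20 °C/100% RH, 4 days in greenhouse at ~21 °C/~90% RH, then misted for 1 day. Efficacy scored 6 days post-inoculation (0% = untreated control, 100% = no disease).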

Phytophthora infestans = format: in vivo; settings: tomato plants, spray, 500 ppm, grading 5 days after contamination
Uromyces appendiculatus = experiment: In vivo test on Uromyces appendiculatus (brown rust of bean); settings: Saxa variety plants, spray, 500 ppm, grading 10 days after contamination
Method: (§1) The active ingredients tested are prepared by homogenization in a mixture of acetone/tween/DMSO, then diluted with water to obtain the desired active material.
[…] (Saxa variety) sown on 50/50 peat soil-pozzolana substrate in starter cups and grown at 24° C., are treated at the 2-leaf stage (9 cm tall) by spraying with the aqueous suspension described above.
(§2) Plants, used as controls, are treated with an aqueous solution not containing the active material.
(§3) After 24 hours, the plants are contaminated by spraying the leaves with an aqueous suspension of Uromyces appendiculatus spores (150.000 spores per ml). The spores are collected from a 10-day-old contaminated […] and are suspended in water containing 2.5 ml/l of tween 80 10%. The contaminated […] are incubated for 24 hours at 20° C. and at 100% relative humidity, and then for 10 days at 20° C. and at 70% relative humidity. Grading is carried out 10 days after the contamination, in comparison with the control plants.
(§4) Under these conditions, good (at least 70%) or total protection is observed at a dose of 500 ppm with the following compounds: […]

Puccinia recondita = experiment: In vivo test on Puccinia recondita (brown rust); settings: wheat plants, spray, 500 ppm, grading 10 days after contamination
Method: as §1
Wheat plants (Scipion variety) sown on 50/50 peat soil-pozzolana substrate in starter cups and grown at 22° C. (12 h)/20° C. (12 h), are treated at the 1-leaf stage (10 cm tall) by spraying with the aqueous suspension described above.
as §3, with “Plants, used as controls, are treated with an aqueous solution not containing the active material. After” for “After”, “Puccinia recondite” for “Uromyces appendiculatus”, “(100.000” for “(150.000”
as §4

[1] = pH 2.7
Pyrenophora teres = experiment: In vivo test on Pyrenophora teres (barley net blotch); settings: barley plants, spray, 500 ppm, grading 12 days after contamination
Method: The active ingredients tested are prepared by homogenization in a mixture of acetone/Tween/DMSO, then diluted with water to obtain the desired active material concentration.
Barley plants (Plaisant variety), sown on a 50/50 peat soil-pozzolana substrate in starter cups and grown at 22° C. (12 h)/20° C. (12 h), are treated at the 1-leaf stage (10 cm tall) by spraying with the active ingredient prepared as described above.
as §2
After 24 hours, the plants are contaminated by spraying them with an aqueous suspension of Pyrenophora teres spores (12.000 spores per ml). The spores are collected from a 12-day-old culture.
The contaminated barley plants are incubated for 24 hours at about 20° C. and at 100% relative humidity, and then for 12 days at 80% relative humidity.
Grading is carried out 12 days after the contamination, in comparison with the control plants.
Under these conditions, good (at least 70%) is observed at a dose of 500 ppm with the following compounds: […]

[2] = test system: Mycosphaerella graminicola; experiment: In vivo test on Mycosphaerella graminicola (wheat leaf spot); settings: wheat plants, spray, 500 ppm, grading 21 to 28 days after contamination
Method: The active ingredients tested are prepared by homogenization in a mixture of acetone/tween/DMSO, then diluted with water to obtain the desired active material concentration.
Wheat plants (Scipion variety), sown on a 50/50 peat soil-pozzolana substrate in starter cups and grown at 22° C. (12 h)/20° C. (12 h), are treated at the 1-leaf stage (10 cm tall) by spraying with the aqueous suspension described above. Plants, used as controls, are treated with an aqueous solution not containing the active material.
After 24 hours, the plants are contaminated by spraying them with an aqueous suspension of cryopreserved Mycosphaerella graminicola spores (500.000 spores per ml). The contaminated wheat plants are incubated for 72 hours at 18° C. and at 100% relative humidity, and then for 21 to 28 days at 90% relative humidity.
Grading (% of efficacy) is carried out 21 to 28 days after the contamination, in comparison with the control plants.
as §4

Botrytis cinerea = experiment: In vivo test on Botrytis cinerea (grey mould); settings: gherkin plants, spray, 500 ppm, grading 4/5 days after contamination
Method: The active ingredients tested are prepared by homogenization in a mixture of acetone/Tween/DMSO, then diluted with water to obtain the desired active material
Gherkin plants (Vert petit de Paris variety), sown on a 50/50 peat soil-pozzolana substrate in starter cups and grown at 18-20° C., are treated at the cotyledon Z11 stage by spraying with the active ingredient prepared as described above.
Plants, used as controls, are treated with an aqueous solution not containing the active material. After 24 hours, the plants are contaminated by spraying them with an aqueous suspension of cryopreserved Botrytis cinerea spores (50.000 spores per ml) on upper surface of the leaves. The spores are suspended in a nutrient solution composed of: • 10 g/L of PDB; • 50 g/L of D-fructose; • 2 g/L of NH4NO3; • 1 g/L of KH2PO4.
The contaminated cucumber plants are settled for 4/5 days in a climatic room at 17° C. (day/night) and at 80% relative humidity.
Grading is carried out 4/5 days after the contamination, in comparison with the control plants.
as §4

SMILES	Eff. % (Plasmopara viticola) [%]	Eff. % (Phytophthora infestans) [%]	Eff. % (Uromyces appendiculatus) [%]	Eff. % (Puccinia recondita) [%]	LogP [1]	Eff. % (Pyrenophora teres) [%]	Eff. % [2] [%]	Eff. % (Botrytis cinerea) [%]
C#CCCOC(=O)Nc1cccc(CO/N=C(/c2cccc(OC)c2)c2noc(=O)n2C)n1 [Example 228]	93	100	70	81	3.33 [a]	–	–	–
Cc1cccc(C(=NOCc2cccc(NC(=O)OC3CCCCC3)n2)c2noc(=O)n2C)c1 [Example 250]	–	80	–	–	4.82 [a]	79	96	–
Cn1c(C(=NOCc2cccc(NC(=O)Cc3cc(F)ccc3F)n2)c2ccccc2)noc1=O [Example 255]	–	98	–	–	3.62 [a]	70	88	–
C=CCCC(=O)Nc1cccc(CON=C(c2ccccc2)c2noc(=O)n2C)n1 [Example 256]	–	100	–	–	3.25 [a]	90	–	–
Cn1c(C(=NOCc2cccc(NC(=O)OCCc3ccccc3)n2)c2ccc(F)cc2)noc1=O [Example 258]	–	89	93	81	4.24 [a]	–	–	–
CC(C)C=CCCCCC(=O)Nc1cccc(CON=C(c2ccccc2)c2noc(=O)n2C)n1 [Example 268]	–	100	–	–	5.06 [a]	96	–	–
Cn1c(/C(=N\OCc2cccc(NC(=O)COCc3ccccc3)n2)c2ccccc2)noc1=O [Example 278]	–	100	–	–	3.87 [a]	–	–	78
CCn1c(C(=NOCc2cccc(NC(=O)CC(C)C)n2)c2ccccc2)noc1=O [Example 280]	–	100	83	98	3.7 [a]	–	–	–
CCCCOC(=O)Nc1cccc(CO/N=C(/c2cccc(F)c2)c2noc(=O)n2C)n1 [Example 295]	89	97	70	–	4.14 [a]	–	–	–
Cn1c(/C(=N\OCc2cccc(NC(=O)c3ccc(Cl)cc3Cl)n2)c2ccccc2)noc1=O [Example 332]	–	85	–	–	4.14 [a]	–	–	71
Cn1c(/C(=N\OCc2csc(NC(=O)c3ccc(Br)cc3)n2)c2ccccc2)noc1=O [Example 373]	–	97	–	–	4.01 [a]	–	–	85
COCC(=O)Nc1cccc(CO/N=C(/c2ccccc2)c2noc(=O)n2C)n1 [Example 379]	–	100	–	–	2.73 [a]	100	–	–
CCOCCOC(=O)Nc1cccc(CO/N=C(/c2ccccc2)c2noc(=O)n2C)n1 [Example 400]	–	100	94	–	3.17 [a]	–	–	–
CCCCCOC(=O)Nc1cccc(CO/N=C(/c2cccc(F)c2)c2noc(=O)n2C)n1 [Example 406]	79	94	79	81	4.53 [a]	–	79	–
